The values below come from patent US20090137688A1, “PHARMACEUTICAL PRODUCT” (priority 2005, published 2009).

The series in a line: Accumulative release from porous silicon samples immersed in PBS buffer, measured by UV spectroscopic technique. It counts as physicochemical. The settings on record: PBS buffer at 37 C; for rate of release when the porous silicon wafer has been coated with cocoa butter, relative to the uncoated state: Method A, cocoa butter layer approx. 1 mm, FIG. 1. How it is done: A number of experiments were performed to show the effect of an excipient upon the release of a beneficial substance from the pores of porous silicon. Three substances were tested: chlorambucil, amitriptyline hydrochloride, neutral red. The excipient employed was cocoa butter. Three methods of combining the porous silicon, excipient, and beneficial substance, were carried out.
Method A comprises the steps of: (a) dissolving the beneficial substance in ethanol; (b) introducing the ethanolic solution of the beneficial substance to the surface of the porous silicon wafer and allowing it to pass into the pores; (c) applying heat to the porous silicon wafer by means of a hot plate to drive off the ethanol, (d) removing the excess beneficial substance, that has not entered the pores, by washing with ethanol; (e) dropping melted cocoa butter oil onto the porous side of the wafer, which has been loaded with a beneficial substance; and (f) allowing the wafer to cool at an ambient temperature of 20 C for approximately one hour, the cocoa butter forming a layer, approximately 1 mm in depth, that coats the surface of the porous silicon.
Method B comprises the steps: (a) dissolving the beneficial substance and excipient in ethanol; (b) introducing the ethanolic solution of the beneficial substance and excipient to the surface of the porous silicon wafer and allowing it to pass into the pores; (c) applying heat to the porous silicon wafer by means of a hot plate thereby driving off the ethanol, and (d) removing the excess beneficial substance and excipient, that have not entered the pores, by washing with ethanol. The porosified wafer, utilized for methods A and B, comprised mesoporous silicon having a porosity of 74%.
Method C comprises the steps: (a) fabricating particles of porous silicon by milling one or more porous silicon membranes; (b) combining the silicon particles with an ethanolic solution of the beneficial substance in a flask; (c) removing the ethanol by rotary evaporation; (d) mixing the beneficial substance loaded particles with excipient, (e) introducing the mixture to a cylindrical die, and (f) applying a uniaxial pressure of 0.5 ton to form a pellet. The porous silicon membrane, utilized for method C, comprises mesoporous silicon having a porosity of: 77%.
Samples of porous silicon that have been combined with beneficial substance and excipient by methods A, B, and C were then immersed in PBS buffer at 37 C, and the accumulative release was measured by means of a UV spectroscopic technique.
The uncoated samples, the results for which are shown in FIG. 1, were prepared, with the steps (a) to (d) of method A.

Where [1] appears, read: mesoporous silicon wafer, porosity 74%.

Counter-ions that a name gives are not always drawn.

As to `CN(C)CCC=C1c2ccccc2CCc2ccccc21` [amitriptyline hydrochloride], the “rate of release when the porous silicon wafer has been coated with cocoa butter, relative to the uncoated state” value under setting [1] is “slower”.
Consider `O=C(O)CCCc1ccc(N(CCCl)CCCl)cc1` [chlorambucil], for which the “rate of release when the porous silicon wafer has been coated with cocoa butter, relative to the uncoated state” value under setting [1] is on record as “increases”. Besides, the “rate of release for porous silicon loaded with beneficial substance alone, compared with solution loading with cocoa butter” value (Method B, mesoporous silicon wafer, porosity 74%, FIG. 2) is given as “faster than when the excipient is present”. Moreover, the “rate of release from pellet, excipient free sample versus pellet with equal mass of cocoa butter and porous silicon, during the first seven hours” value (Method C, compressed pellet, mesoporous silicon porosity 77%, FIG. 3) was “higher, from the excipient free sample”. In addition, for the setting “Method C, pellet with equal mass of cocoa butter and porous silicon, FIG. 3”, the “rate of release from the excipient containing pellet beyond seven hours” value was “accelerates until it is higher than that of the excipient free sample”.
